Test results taken from ChEMBL document CHEMBL5352419, “Design, synthesis, and biological evaluation of tetrahydroquinoline amphiphiles as membrane-targeting antimicrobials against pathogenic bacteria and fungi” (Eur J Med Chem, 2022).
Converted amounts (≈) assume the structure as drawn. The source made the active and inactive calls. No cut-off for these calls is given here.

Key:
Candida albicans [1] = test: Antimicrobial activity against Candida albicans ATCC10231 assessed as fungal growth inhibition incubated for 48 hrs by Sabouraud Dextrose broth based dilution assay; assay type: functional
Staphylococcus aureus [2] = test: Antimicrobial activity against methicillin-resistant Staphylococcus aureus N315 assessed as bacterial growth inhibition incubated for 24 hrs by Muller Hinton broth based dilution assay; assay type: functional
Staphylococcus aureus [3] = test: Antimicrobial activity against methicillin-resistant Staphylococcus aureus NCTC10442 assessed as bacterial growth inhibition incubated for 24 hrs by Muller Hinton broth based dilution assay; assay type: functional
Pseudomonas aeruginosa = test: Antimicrobial activity against Pseudomonas aeruginosa ATCC9027 assessed as bacterial growth inhibition incubated for 24 hrs by Muller Hinton broth based dilution assay; assay type: functional
Klebsiella pneumoniae = test: Antimicrobial activity against Klebsiella pneumoniae ATCC10031 assessed as bacterial growth inhibition incubated for 24 hrs by Muller Hinton broth based dilution assay; assay type: functional
Staphylococcus aureus [4] = test: Antimicrobial activity against methicillin-resistant Staphylococcus aureus NCTC10442 assessed as bacterial growth inhibition incubated for 24 hrs in presence of 3220 ug/mL Na+ by Muller Hinton broth based dilution assay; assay type: functional
Escherichia coli [5] = test: Antimicrobial activity against Escherichia coli ATCC25922 assessed as bacterial growth inhibition incubated for 24 hrs in presence of 3220 ug/mL Na+ by Muller Hinton broth based dilution assay; assay type: functional
Acinetobacter baumannii [6] = test: Antimicrobial activity against Acinetobacter baumannii ATCC17978 assessed as bacterial growth inhibition incubated for 24 hrs in presence of 3220 ug/mL Na+ by Muller Hinton broth based dilution assay; assay type: functional
Acinetobacter baumannii [7] = test: Antimicrobial activity against Acinetobacter baumannii ATCC17978 assessed as bacterial growth inhibition incubated for 24 hrs in presence of 175.5 ug/mL K+ by Muller Hinton broth based dilution assay; assay type: functional
Candida albicans [8] = test: Antimicrobial activity against Candida albicans CMCC98001 assessed as fungal growth inhibition incubated for 48 hrs in presence of 175.5 ug/mL K+ by Sabouraud Dextrose broth based dilution assay; assay type: functional
Escherichia coli [9] = test: Antimicrobial activity against Escherichia coli ATCC25922 assessed as bacterial growth inhibition incubated for 24 hrs in presence of 100 ug/mL Ca2+ by Muller Hinton broth based dilution assay; assay type: functional
Acinetobacter baumannii [10] = test: Antimicrobial activity against Acinetobacter baumannii ATCC17978 assessed as bacterial growth inhibition incubated for 24 hrs in presence of 100 ug/mL Ca2+ by Muller Hinton broth based dilution assay; assay type: functional
Staphylococcus aureus [11] = test: Antimicrobial activity against Staphylococcus aureus ATCC29213 assessed as bacterial growth inhibition incubated for 24 hrs in presence of 24.3 ug/mL Mg2+ by Muller Hinton broth based dilution assay; assay type: functional
Staphylococcus aureus [12] = test: Antimicrobial activity against methicillin-resistant Staphylococcus aureus NCTC10442 assessed as bacterial growth inhibition incubated for 24 hrs in presence of 24.3 ug/mL Mg2+ by Muller Hinton broth based dilution assay; assay type: functional
Escherichia coli [13] = test: Antimicrobial activity against Escherichia coli ATCC25922 assessed as bacterial growth inhibition incubated for 24 hrs in presence of 24.3 ug/mL Mg2+ by Muller Hinton broth based dilution assay; assay type: functional
Acinetobacter baumannii [14] = test: Antimicrobial activity against Acinetobacter baumannii ATCC17978 assessed as bacterial growth inhibition incubated for 24 hrs in presence of 24.3 ug/mL Mg2+ by Muller Hinton broth based dilution assay; assay type: functional
Staphylococcus aureus [15] = test: Antimicrobial activity against Staphylococcus aureus ATCC29213 assessed as log reduction in microbial load at 8 times of MIC measured at 0.5 hr by time-kill kinetics assay; assay type: functional
Escherichia coli [16] = test: Antimicrobial activity against Escherichia coli ATCC25922 assessed as log reduction in microbial load at 8 times of MIC measured at 0.5 hr by time-kill kinetics assay; assay type: functional
Staphylococcus aureus [17] = test: Antimicrobial activity against Staphylococcus aureus ATCC29213 assessed as bacterial killing at 1 to 8 times of MIC measured upto 24 hrs by time-kill kinetics assay; assay type: functional, organism-based
Escherichia coli [18] = test: Antimicrobial activity against Escherichia coli ATCC25922 assessed as bacterial killing at 1 to 8 times of MIC measured upto 24 hrs by time-kill kinetics assay; assay type: functional, organism-based
Candida albicans [19] = test: Antimicrobial activity against Candida albicans ATCC10231 assessed as fungal killing at 1 to 8 times of MIC measured upto 24 hrs by time-kill kinetics assay; assay type: functional, organism-based
Escherichia coli [20] = test: Induction of drug resistance in Escherichia coli ATCC25922 assessed as change in MIC at sub-inhibitory concentration incubated for 21 to 22 passages; assay type: functional
Candida albicans [21] = test: Induction of drug resistance in Candida albicans ATCC10231 assessed as change in MIC at sub-inhibitory concentration incubated for 21 to 22 passages; assay type: functional
Cell membrane [22] = test: Disruption of membrane integrity in Candida albicans ATCC10231 assessed as increase in fluorescence intensity at 1 to 8 times of MIC measured for 1 hr by SYTOX green dye based fluorescence analysis
Cell membrane [23] = test: Disruption of membrane integrity in Candida albicans ATCC10231 assessed as red fluorescence at 8 times of MIC incubated for 2 hrs under dark condition by SYTO 9 and PI staining based laser confocal microscopy analysis
Staphylococcus aureus [24] = test: Antibiofilm activity against Staphylococcus aureus ATCC29213 assessed as inhibition of biofilm formation at 0.78 ug/mL incubated for 24 hrs by crystal violet staining based analysis relative to control; assay type: functional
Staphylococcus aureus [25] = test: Antibiofilm activity against Staphylococcus aureus ATCC29213 assessed as inhibition of biofilm formation at 3.125 ug/mL incubated for 24 hrs by crystal violet staining based analysis relative to control; assay type: functional
Escherichia coli [26] = test: Antibiofilm activity against Escherichia coli ATCC25922 assessed as inhibition of biofilm formation at 0.39 ug/mL incubated for 24 hrs by crystal violet staining based analysis relative to control; assay type: functional
Escherichia coli [27] = test: Disruption of preformed biofilm in Escherichia coli ATCC25922 assessed as residual preformed biofilm at 6.25 ug/mL incubated for 24 hrs by crystal violet staining based analysis relative to control; assay type: functional; conditions: dose 6.25 µg/ml
Escherichia coli [28] = test: Disruption of preformed biofilm in Escherichia coli ATCC25922 assessed as residual preformed biofilm at 0.78 ug/mL incubated for 24 hrs by crystal violet staining based analysis relative to control; assay type: functional; conditions: dose 0.78 µg/ml
Escherichia coli [29] = test: Disruption of preformed biofilm in Escherichia coli ATCC25922 assessed as residual preformed biofilm at 3.125 ug/mL incubated for 24 hrs by crystal violet staining based analysis relative to control; assay type: functional; conditions: dose 3.125 µg/ml
Escherichia coli [30] = test: Disruption of preformed biofilm in Escherichia coli ATCC25922 assessed as residual preformed biofilm at 12.5 ug/mL incubated for 24 hrs by crystal violet staining based analysis relative to control; assay type: functional; conditions: dose 12.5 µg/ml
[31] = Cytotoxicity against mouse J774.A1 cells assessed as viable cells at 6.25 ug/mL incubated for 24 hrs by CCK-8 assay relative to control; assay type: toxicity, cell-based; conditions: at 6.25 µg/mL, read-out: Activity
[32] = Cytotoxicity against mouse corneal epithelial cells assessed as viable cells at 25 ug/mL incubated for 24 hrs by CCK-8 assay relative to control; assay type: toxicity, cell-based, Corneal epithelial cell; conditions: at 25 µg/mL, read-out: Activity
[33] = Cytotoxicity against mouse corneal epithelial cells assessed as viable cells at 50 ug/mL incubated for 24 hrs by CCK-8 assay relative to control; assay type: toxicity, cell-based, Corneal epithelial cell; conditions: at 50 µg/mL, read-out: Activity

SMILES | MIC (Candida albicans [1]) [µg/mL] | MIC (Staphylococcus aureus [2]) [µg/mL] | MIC (Staphylococcus aureus [3]) [µg/mL] | MIC (Pseudomonas aeruginosa) [µg/mL] | MIC (Klebsiella pneumoniae) [µg/mL] | MIC (Staphylococcus aureus [4]) [µg/mL] | MIC (Escherichia coli [5]) [µg/mL] | MIC (Acinetobacter baumannii [6]) [µg/mL] | MIC (Acinetobacter baumannii [7]) [µg/mL] | MIC (Candida albicans [8]) [µg/mL] | MIC (Escherichia coli [9]) [µg/mL] | MIC (Acinetobacter baumannii [10]) [µg/mL] | MIC (Staphylococcus aureus [11]) [µg/mL] | MIC (Staphylococcus aureus [12]) [µg/mL] | MIC (Escherichia coli [13]) [µg/mL] | MIC (Acinetobacter baumannii [14]) [µg/mL] | log(activity) (Staphylococcus aureus [15]) | log(activity) (Escherichia coli [16]) | Activity (Staphylococcus aureus [17]) | Activity (Escherichia coli [18]) | further results
CC(C)=CCN1CCCc2cc(OCCCCCCCCNC(=N)N)ccc21 | 0.78 (≈ 2.02 µM) | 0.78 (≈ 2.02 µM) | 0.78 (≈ 2.02 µM) | 6.25 (≈ 16.2 µM) | 3.12 (≈ 8.08 µM) | 0.78 | 3.12 | 3.12 | 3.12 | 0.78 | 3.12 | 3.12 | 0.78 | 0.78 | 3.12 | 3.12 | >3 | >3 | Dose-Dependent Effect | Dose-Dependent Effect | Activity (Candida albicans [19]): Dose-Dependent Effect; Activity (Escherichia coli [20]): inactive; Activity (Candida albicans [21]): inactive; Activity (Cell membrane [22]): Dose-Dependent Effect; Activity (Cell membrane [23]): Active; inhibition at 0.78 µg/mL (Staphylococcus aureus [24]): 93.6%; inhibition at 3.125 µg/mL (Staphylococcus aureus [25]): 100%; inhibition at 0.39 µg/mL (Escherichia coli [26]): 13.5%; Activity (Escherichia coli [27]): 18.49%; Activity (Escherichia coli [28]): 96.08%; Activity (Escherichia coli [29]): 47.23%; Activity (Escherichia coli [30]): 6.85%; viability at 24 h, 6.25 ug/mL [31]: 96.3%; viability at 24 h, 25 ug/mL [32]: 76.9%; viability at 24 h, 50 ug/mL [33]: 36.3%
CCCCCCCCCN1CCCc2cc(OCCCCNC(=N)N)ccc21 | 1.56 (≈ 4.01 µM) | 0.78 (≈ 2.01 µM) | 1.56 (≈ 4.01 µM) | 6.25 (≈ 16.1 µM) | 1.56 (≈ 4.01 µM) | 0.78 | 1.56 | 3.12 | 3.12 | 0.78 | 3.12 | 3.12 | 0.78 | 0.78 | 1.56 | 3.12 | >3 | >3 | Dose-Dependent Effect | Dose-Dependent Effect | Activity (Candida albicans [19]): Dose-Dependent Effect; Activity (Escherichia coli [20]): inactive; Activity (Candida albicans [21]): inactive; Activity (Cell membrane [22]): Dose-Dependent Effect; Activity (Cell membrane [23]): Active; inhibition at 0.78 µg/mL (Staphylococcus aureus [24]): 91%; inhibition at 3.125 µg/mL (Staphylococcus aureus [25]): 102%; inhibition at 0.39 µg/mL (Escherichia coli [26]): 21.6%; Activity (Escherichia coli [27]): 15.34%; Activity (Escherichia coli [28]): 93.41%; Activity (Escherichia coli [29]): 32.54%; Activity (Escherichia coli [30]): 8.81%; viability at 24 h, 6.25 ug/mL [31]: 97.4%; viability at 24 h, 25 ug/mL [32]: 57.7%; viability at 24 h, 50 ug/mL [33]: 8.36%
